US20150268223A1, “MICR[…]-CULTURE SYSTEMS AS INFECTIOUS DISEASE ANALYSIS PLATFORMS” (Massachusetts Institute of Technology, priority 2008, published 2015)

Tested on: retroviral pseudoparticles bearing the E1/E2 glycoproteins of the Hepatitis C virus (HCV) genotype 1a strain (H77)
Type: cell-based

## O=C(O)CN(CCN(CC(=O)O)CC(=O)O)CC(=O)O [EDTA]
  access of micropatterned co-cultures to viral pseudoparticles and virus: dramatically improves access
